Test results from PMC8881610 (Nature Communications, 2022).

Columns and labels:
GCGR = GCGR (Homo sapiens, UniProt P47871); test: Whole-cell binding assay, competition with 125I-GCG; set-up: V5 (C); 6×His (C); expressed in transfected cells; host or cells: CHO-K1; conditions: Fig. 7c receptor binding profile, n = 3 in duplicate
Description: (§1) Human embryonic kidney 293 cells containing SV40 large T-antigen (HEK293T) were cultured in DMEM (Gibco) supplemented with 10% (v/v) fetal bovine serum (FBS, Gibco), 1 mM sodium pyruvate (Gibco) and 100 units/mL penicillin and 100 μg/mL streptomycin at 37 °C in 5% CO2. Chinese hamster ovary (CHO-K1) cells were cultured in F-12 (Gibco) containing 10% FBS, 100 units/mL penicillin and 100 μg/mL streptomycin at 37 °C in 5% CO2. For cAMP and receptor expression assays, HEK293T cells were seeded into 6-well cell culture plates at a density of 7 × 10^5 cells per well. After overnight incubation, cells were transfected with GIPR, GLP-1R or GCGR construct using Lipofectamine 2000 or Lipofectamine 3000 transfection reagent (Invitrogen). For whole-cell binding assay, CHO-K1 cells were seeded into 96-well fibronectin-treated cell culture plates at a density of 3 × 10^4 cells per well. After overnight incubation, cells were transfected with GIPR, GLP-1R or GCGR construct using Lipofectamine 2000 transfection reagent (Invitrogen). Following 24 h culturing, the transfected cells were ready for use.
For GLP-1R and GCGR, CHO-K1 cells (30,000 cells/well) were seeded into Isoplate-96 plates and incubated for 24 h at 37 °C in 5% CO2. The WT or mutant constructs were transiently transfected using Lipofectamine 2000 transfection reagent as previous described. They were then washed twice using F-12 with 0.1% BSA or 0.1% casein, 33 mM HEPES, and incubated for 2 h at 37 °C. […] Cells were washed three times with ice-cold PBS and lysed in PBS with 1% Triton X-100, 20 mM Tris-HCl. After addition of scintillation cocktail (PerkinElmer), radioactivity (CPM) was counted on a MicroBeta^2 microplate counter (PerkinElmer). Data were normalized to the WT response and analyzed using three-parameter logistic equation.

[1] = clinical trial outcome; Drugs@FDA, ChemBL, ClinicalTrials.gov; cited from earlier work
GLP-1R = GLP-1R (Homo sapiens, UniProt P43220); test: cAMP accumulation assay, GLP-1R WT, mutant or modified constructs; format: cell-based; set-up: Flag; expressed in transfected cells; host or cells: HEK293T; conditions: GLP-1R; HEK293T, n = 4; SEM
Chain of GLP-1R (P43220 24-463): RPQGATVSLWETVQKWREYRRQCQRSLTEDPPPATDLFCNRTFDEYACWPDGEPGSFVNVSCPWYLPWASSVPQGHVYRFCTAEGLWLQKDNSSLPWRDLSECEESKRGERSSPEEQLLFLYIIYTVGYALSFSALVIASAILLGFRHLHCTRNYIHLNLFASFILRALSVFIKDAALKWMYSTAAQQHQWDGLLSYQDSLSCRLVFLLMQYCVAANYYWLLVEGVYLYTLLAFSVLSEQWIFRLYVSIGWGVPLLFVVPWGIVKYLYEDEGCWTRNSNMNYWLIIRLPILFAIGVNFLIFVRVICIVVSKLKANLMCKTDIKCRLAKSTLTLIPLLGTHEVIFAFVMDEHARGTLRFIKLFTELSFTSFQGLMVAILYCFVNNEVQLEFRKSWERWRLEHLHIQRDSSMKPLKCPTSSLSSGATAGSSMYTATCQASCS
Description: as §1
The human GLP-1R was modified with its native signal sequence (M1-P23) replaced by the HA signal peptide to facilitate receptor expression. To obtain a GLP-1R–Gs complex with good homogeneity and stability, we used the NanoBiT tethering strategy, in which the C terminus of GLP-1R was directly attached to LgBiT subunit followed by a TEV protease cleavage site and a double MBP tag. […] The constructs were cloned into both pcDNA3.1 and pFastBac vectors for functional assays in mammalian cells and protein expression in insect cells, respectively. Other constructs including the full-length and various mutants of human GLP-1R were cloned into pcDNA3.1 vector for cAMP accumulation and whole-cell binding assays.
For GIPR, GLP-1R and GCGR, multi-targeting agonist stimulated cAMP accumulation was measured by a LANCE Ultra cAMP kit (PerkinElmer). After 24 h culture, the transfected cells were seeded into 384-well microtiter plates at a density of 3,000 cells per well in HBSS supplemented with 5 mM HEPES, 0.1% (w/v) BSA or 0.1% (w/v) casein and 0.5 mM 3-isobutyl-1-methylxanthine. The cells were stimulated with different concentrations of peptide agonists for 40 min at RT. Eu-cAMP tracer and ULight^TM-anti-cAMP were then diluted by cAMP detection buffer and added to the plates separately to terminate the reaction. Plates were incubated at RT for 1 h and the fluorescence intensity measured at 620 nm and […] by an EnVision multilabel plate reader (PerkinElmer).

GIPR = target: T1, GIPR (Homo sapiens, UniProt P48546); test: Whole-cell binding assay, competition with 125I-GIP1-42; set-up: acylated tirzepatide to the full-length or modified; Flag; expressed in transfected cells; conditions: Fig. 7c receptor binding profile, n = 3 in duplicate
T1 sequence (P48546 22-466): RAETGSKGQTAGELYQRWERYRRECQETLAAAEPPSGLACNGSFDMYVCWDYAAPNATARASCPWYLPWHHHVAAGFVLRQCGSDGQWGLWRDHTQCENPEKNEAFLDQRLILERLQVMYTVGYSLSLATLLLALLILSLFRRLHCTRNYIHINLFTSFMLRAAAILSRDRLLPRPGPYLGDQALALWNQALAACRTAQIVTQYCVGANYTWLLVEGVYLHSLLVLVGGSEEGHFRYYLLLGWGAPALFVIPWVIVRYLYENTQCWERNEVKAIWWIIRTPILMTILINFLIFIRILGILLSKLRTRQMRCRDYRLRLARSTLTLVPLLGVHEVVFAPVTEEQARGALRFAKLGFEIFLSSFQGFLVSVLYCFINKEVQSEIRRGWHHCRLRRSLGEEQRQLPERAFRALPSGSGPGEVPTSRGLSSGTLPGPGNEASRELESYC
Description: as §1
For GIPR, CHO-K1 cells were cultured in F-12 medium with 10% FBS and seeded at a density of 30,000 cells/well in Isoplate-96 plates (PerkinElmer). The WT or mutant GIPR was transiently transfected using Lipofectamine 2000 transfection reagent as previous described. They were then washed twice using F-12 with 0.1% BSA or 0.1% casein, 33 mM HEPES, and incubated for 2 h at 37 °C. […] Following incubation, cells were washed three times with ice-cold PBS and lysed by addition of 50 μL lysis buffer (PBS supplemented with 20 mM Tris-HCl, 1% Triton X-100, pH 7.4). Fifty µL of scintillation cocktail (OptiPhase SuperMix, PerkinElmer) were added and the plates were subsequently counted for radioactivity (counts per minute, CPM) in a MicroBeta^2 microplate counter (PerkinElmer).

Chain of GCGR (P47871 26-477): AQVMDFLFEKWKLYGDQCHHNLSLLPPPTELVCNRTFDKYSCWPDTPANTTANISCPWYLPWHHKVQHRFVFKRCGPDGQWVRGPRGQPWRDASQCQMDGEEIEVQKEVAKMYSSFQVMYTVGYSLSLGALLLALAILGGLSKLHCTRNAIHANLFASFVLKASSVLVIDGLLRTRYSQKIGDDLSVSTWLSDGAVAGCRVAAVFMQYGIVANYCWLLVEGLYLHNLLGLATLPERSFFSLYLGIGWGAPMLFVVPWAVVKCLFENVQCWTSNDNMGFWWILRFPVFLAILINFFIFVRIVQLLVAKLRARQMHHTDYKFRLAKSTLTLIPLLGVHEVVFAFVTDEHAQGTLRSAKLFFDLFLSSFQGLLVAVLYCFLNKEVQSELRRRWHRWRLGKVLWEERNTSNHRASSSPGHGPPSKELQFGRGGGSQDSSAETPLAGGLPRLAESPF

Row | Compound | GCGR (pIC50 ± S.E.M.) (GCGR) | Body weight [1] | Fasting plasma glucose [1] [mg/dL] | HAb1c [1] [%] | cAMP Emax ± S.E.M. (GLP-1R) | cAMP pEC50 ± S.E.M. (GLP-1R) | GIPR (pIC50 ± S.E.M.) (GIPR)
1 | CC[C@H](C)[C@H](NC(=O)[C@H](CO)NC(=O)[C@H](Cc1ccc(O)cc1)NC(=O)[C@H](CC(=O)O)NC(=O)[C@H](CO)NC(=O)[C@@H](NC(=O)[C@H](Cc1ccccc1)NC(=O)[C@@H](NC(=O)CNC(=O)[C@H](CCC(=O)O)NC(=O)[C@H](C)NC(=O)[C@@H](N)Cc1ccc(O)cc1)[C@@H](C)O)[C@@H](C)CC)C(=O)N[C@@H](C)C(=O)N[C@@H](CCSC)C(=O)N[C@@H](CC(=O)O)C(=O)N[C@@H](CCCCN)C(=O)N[C@H](C(=O)N[C@@H](Cc1c[nH]cn1)C(=O)N[C@@H](CCC(N)=O)C(=O)N[C@@H](CCC(N)=O)C(=O)N[C@@H](CC(=O)O)C(=O)N[C@@H](Cc1ccccc1)C(=O)N[C@H](C(=O)N[C@@H](CC(N)=O)C(=O)N[C@@H](Cc1c[nH]c2ccccc12)C(=O)N[C@@H](CC(C)C)C(=O)N[C@@H](CC(C)C)C(=O)N[C@@H](C)C(=O)N[C@@H](CCC(N)=O)C(=O)N[C@@H](CCCCN)C(=O)NCC(=O)N[C@@H](CCCCN)C(=O)N[C@@H](CCCCN)C(=O)N[C@@H](CC(N)=O)C(=O)N[C@@H](CC(=O)O)C(=O)N[C@@H](Cc1c[nH]c2ccccc12)C(=O)N[C@@H](CCCCN)C(=O)N[C@@H](Cc1c[nH]cn1)C(=O)N[C@@H](CC(N)=O)C(=O)N[C@H](C(=O)N[C@H](C(=O)N[C@@H](CCC(N)=O)C(=O)O)[C@@H](C)O)[C@@H](C)CC)C(C)C)[C@@H](C)CC [GIP1-42, glucose-dependent insulinotropic polypeptide] | N.B. |  |  |  |  |  | 
2 | Albiglutide: approved GLP-1 analog, GLP-1R mono-agonist | N.B. | -0.04 kg or % | -30.00 | -1.3 | 100.13 ± 1.66 % max GLP-1(7-36)NH2 | 11.02 ± 0.05 | N.B.
3 | CCCCCCCCCCCCCCCC(=O)N[C@@H](CCC(=O)NCCCC[C@H](NC(=O)[C@H](C)NC(=O)[C@H](C)NC(=O)[C@H](CCC(N)=O)NC(=O)CNC(=O)[C@H](CCC(=O)O)NC(=O)[C@H](CC(C)C)NC(=O)[C@H](Cc1ccc(O)cc1)NC(=O)[C@H](CO)NC(=O)[C@H](CO)NC(=O)[C@@H](NC(=O)[C@H](CC(=O)O)NC(=O)[C@H](CO)NC(=O)[C@@H](NC(=O)[C@H](Cc1ccccc1)NC(=O)[C@@H](NC(=O)CNC(=O)[C@H](CCC(=O)O)NC(=O)[C@H](C)NC(=O)[C@@H](N)Cc1c[nH]cn1)[C@@H](C)O)[C@@H](C)O)C(C)C)C(=O)N[C@@H](CCC(=O)O)C(=O)N[C@@H](Cc1ccccc1)C(=O)N[C@H](C(=O)N[C@@H](C)C(=O)N[C@@H](Cc1c[nH]c2ccccc12)C(=O)N[C@@H](CC(C)C)C(=O)N[C@H](C(=O)N[C@@H](CCCNC(=N)N)C(=O)NCC(=O)N[C@@H](CCCNC(=N)N)C(=O)NCC(=O)O)C(C)C)[C@@H](C)CC)C(=O)O [Liraglutide] | N.B. |  |  |  |  |  | N.B.
4 | Exenatide: approved GLP-1R mono-agonist |  | -0.65 kg or % | -34.20 | -1.21 |  |  | 
5 | Dulaglutide: approved GLP-1R mono-agonist |  | -0.20 kg or % | -34.20 | -1.45 |  |  | 
